Assay results as given in US20240317722A1, “HETEROARYL-3-PIPERIDINEDIONE COMPOUND AND USE THEREOF” (Medshine Discovery Inc., priority 2021, published 2024).
Read-outs that look alike come from different tables or passages of the source.

Experiments:
[1] = biological target: GSPT1 (Homo sapiens, UniProt P15170+Q96SW2); experiment: Target protein degradation in HEK293T-LgBiT_GSPT1-nHiBiT cells (HiBiT luminescence); type: cell-based; set-up: expressed in transfected cells; settings: 16 to 18 hours; for Dmax: read-out: Max. DR (maximum degradation rate)
Protocol: This assay was performed to detect the degradation effect of the test compound on the target protein GSPT1 in HEK293T-LgBiT cells.
• 1. Preparation of compounds • (1). Dissolving the powder of the test compound with DMSO to 10 mM as the storage concentration, and using a pipette to manually draw 9 μL of 10 mM or 3 mM test compound to columns 1 and 13 of a LDV plate; • (2). Using multidrop Combi to add 6 μL of DMSO to columns 2-12 and 14-24; • (3). Using Bravo to dilute the test compound 3 times (3 μL+6 μL) from columns 1 to 11 and 13 to 23; • (4). According to the layout of the plate, using Echo to transfer 25 nL of compound solution (columns 1-24 of the LDV plate) to the assay plate; • (5). Using Echo to transfer 25 nL of 1 mM positive control solution to the assay plate as a 100% degradation control (i.e. LC, HPE), and to transfer 25 nL of DMSO to the assay plate as a 0% control (i.e. HC, ZPE). • 2. Cell plating • (1). Discarding the cell culture medium, and washing the cells once with DPBS; then the cells were trypsinized, counted, and used to prepare a cell suspension of 4×10^5 cells/mL; • (2). Using MultiDrop Combi to add 25 μL/well of cell suspension at medium speed to the assay plate containing the test compound; • (3). Putting the assay plate containing cells back into the incubator and culturing it at 37° C. and 5% CO2 for 16 to 18 hours.
• (1). Using MultiDrop Combi to add 25 μL/well of detection reagent (NanoGlo lysis solution+substrate+LgBit protein) to the assay plate at high speed, and shaking for 10 minutes; • (2). Centrifuging at 2000 rpm×1 min to remove bubbles; • (3). Reading the plate using Envision, US Luminescence detection method.
The following formula was used to calculate the degradation rate (DR) of the test compound: DR (%)=(RLU of vehicle control−RLU of compound)/(RLU of vehicle control−RLU of positive control)*100%, wherein the vehicle control was a blank control. The degradation rates of compounds at different concentrations were calculated in Excel, and then XLFit software was used to obtain inhibition curves and to calculate relevant parameters, including the minimum degradation rate, maximum degradation rate and DC50.

[2] = Pharmacokinetics of compounds in mice; type: in vivo, C57BL/6N mice; settings: for bioavailability / clearance / Vd / half-life: male, C57BL/6N, mouse, plasma; for bioavailability: read-out: Bioavailability F; for Vd: read-out: Apparent volume of distribution; for half-life: read-out: Elimination half-life (converted)
Excerpt: In this study, C57BL/6N male mice were selected as the test animals, and the LC/MS/MS method was used to quantitatively determine the drug concentration in the plasma of mice intravenously or orally administered the test compounds, so as to evaluate the pharmacokinetic profile of the test compounds in mice.
C57BL/6N mice (male, 20-30 g, 7-10 weeks old, Beijing Vital River).
A clear solution or suspension of the test compound was intravenously injected into C57BL/6N mice (fasted overnight) via tail or given to C57BL/6N mice (fasted overnight) by gavage. For intravenous injection administration, blood was collected from the cheek at 0 h (before administration) and 0.083, 0.25, 0.5, 1, 2, 4, 6, 8, and 24 h after administration. Each sample was collected about 0.05 mL. Heparin sodium was added to anti-coagulate. Plasma samples were collected and placed on wet ice, and centrifuged within 1 hour to separate the plasma (centrifugation conditions: 6000 g, 3 minutes, 2-8° C.). Blood samples were stored in a −80° C. refrigerator before analysis; For oral gavage administration, blood was collected from the cheek at 0 h (before administration) and 0.083, 0.25, 0.5, 1, 2, 4, 6, 8, 24 h after administration. Each sample was collected about 0.05 mL. Heparin sodium was added to anti-coagulate. Plasma samples were collected and placed on wet ice, and centrifuged within 1 hour to separate the plasma (centrifugation conditions: 6000 g, 3 minutes, 2-8° C.). Blood samples were stored in a −80° C. refrigerator before analysis. Through blood drug concentration data at different time points, Phoenix WinNonlin8.2.0 was used to calculate pharmacokinetic parameters, providing parameters such as AUC0-t, AUC0-∞, MRT0-∞, Cmax, Tmax, and T1/2, etc. and their mean and standard deviation.

[3] = administration by gavage, 10 mg/kg

GSPT1, sequence (P15170 whole entry): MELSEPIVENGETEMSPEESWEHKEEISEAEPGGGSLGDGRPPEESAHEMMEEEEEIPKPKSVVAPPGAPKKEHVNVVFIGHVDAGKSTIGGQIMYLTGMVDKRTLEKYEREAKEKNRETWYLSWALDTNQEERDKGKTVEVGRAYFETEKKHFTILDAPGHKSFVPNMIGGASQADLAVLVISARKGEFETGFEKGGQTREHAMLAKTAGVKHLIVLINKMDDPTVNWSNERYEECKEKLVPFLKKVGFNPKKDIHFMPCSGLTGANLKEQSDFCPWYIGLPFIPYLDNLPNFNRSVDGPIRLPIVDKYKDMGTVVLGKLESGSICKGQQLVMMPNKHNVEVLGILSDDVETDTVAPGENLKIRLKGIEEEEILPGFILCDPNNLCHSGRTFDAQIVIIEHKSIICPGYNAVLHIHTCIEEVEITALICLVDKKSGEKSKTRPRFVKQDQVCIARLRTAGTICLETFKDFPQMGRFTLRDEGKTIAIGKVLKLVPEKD
GSPT1, sequence (Q96SW2 whole entry): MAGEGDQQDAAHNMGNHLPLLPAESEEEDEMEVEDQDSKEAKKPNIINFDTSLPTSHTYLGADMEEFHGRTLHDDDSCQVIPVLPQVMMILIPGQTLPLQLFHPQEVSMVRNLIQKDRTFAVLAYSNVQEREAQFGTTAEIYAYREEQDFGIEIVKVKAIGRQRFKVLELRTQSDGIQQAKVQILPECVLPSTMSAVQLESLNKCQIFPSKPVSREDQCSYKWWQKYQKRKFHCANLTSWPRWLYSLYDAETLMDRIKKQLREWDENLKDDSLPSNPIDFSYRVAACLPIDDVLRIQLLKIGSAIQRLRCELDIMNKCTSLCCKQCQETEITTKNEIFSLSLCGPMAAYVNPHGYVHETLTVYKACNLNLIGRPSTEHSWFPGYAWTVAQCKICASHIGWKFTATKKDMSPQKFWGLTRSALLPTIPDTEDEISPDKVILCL
GSPT1, sequence (Q16531 whole entry partner): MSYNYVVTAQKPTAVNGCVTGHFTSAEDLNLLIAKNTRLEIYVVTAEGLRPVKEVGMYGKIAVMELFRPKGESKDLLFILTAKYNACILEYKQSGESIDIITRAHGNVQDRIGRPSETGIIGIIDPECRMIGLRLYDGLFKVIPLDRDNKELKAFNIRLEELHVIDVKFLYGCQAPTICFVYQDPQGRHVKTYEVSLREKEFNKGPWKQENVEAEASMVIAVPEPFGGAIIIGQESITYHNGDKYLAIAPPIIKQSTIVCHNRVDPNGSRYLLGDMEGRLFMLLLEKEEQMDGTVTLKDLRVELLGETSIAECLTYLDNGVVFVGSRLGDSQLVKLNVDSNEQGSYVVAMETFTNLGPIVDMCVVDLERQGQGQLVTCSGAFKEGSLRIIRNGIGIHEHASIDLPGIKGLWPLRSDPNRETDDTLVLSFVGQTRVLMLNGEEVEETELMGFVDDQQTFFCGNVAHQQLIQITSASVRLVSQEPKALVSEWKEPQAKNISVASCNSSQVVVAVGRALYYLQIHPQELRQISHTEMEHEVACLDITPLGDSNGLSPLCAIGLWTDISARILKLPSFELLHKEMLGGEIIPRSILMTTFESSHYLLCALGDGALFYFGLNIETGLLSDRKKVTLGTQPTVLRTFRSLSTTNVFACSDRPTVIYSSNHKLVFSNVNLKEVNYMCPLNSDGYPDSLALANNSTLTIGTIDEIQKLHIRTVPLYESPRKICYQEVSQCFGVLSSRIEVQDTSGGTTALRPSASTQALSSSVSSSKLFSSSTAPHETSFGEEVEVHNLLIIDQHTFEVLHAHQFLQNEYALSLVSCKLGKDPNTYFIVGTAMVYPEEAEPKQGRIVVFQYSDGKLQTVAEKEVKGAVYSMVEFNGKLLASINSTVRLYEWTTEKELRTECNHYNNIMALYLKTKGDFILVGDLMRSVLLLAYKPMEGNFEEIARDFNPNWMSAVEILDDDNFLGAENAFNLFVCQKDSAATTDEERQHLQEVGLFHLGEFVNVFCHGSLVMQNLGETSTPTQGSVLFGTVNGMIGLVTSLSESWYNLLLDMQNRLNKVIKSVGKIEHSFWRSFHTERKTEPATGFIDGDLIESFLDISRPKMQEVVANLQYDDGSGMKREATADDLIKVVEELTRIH

With `COCCOc1cc(NC(=O)NCc2ccc3c(C4CCC(=O)NC4=O)coc3c2)cc(Cl)c1C` (centres unmarked) [WX005] the DC50 [1] was 2.51 nM, the Dmax [1] was 100% and the “Area under the plasma concentration-time curve (0-inf)” value (“Area” below) [2, 3] was 108.89 µM·h. For the same compound, the Peak concentration [2, 3] was 23.27 µM, the Time to peak [2, 3] was 1.00 h and the “Area” value ([2]; intravenous injection, 1 mg/kg) was 14.34 µM·h. For the same compound, the bioavailability ([2]; PO 10 mg/kg vs IV 1 mg/kg) was 75.9%, the clearance ([2]; intravenous injection, 1 mg/kg) was 2.3 mL/min/kg and the Vd ([2]; intravenous injection, 1 mg/kg) was 0.35 L/kg. For the same compound, the half-life ([2]; intravenous injection, 1 mg/kg) was 163 min.

In the case of `COCCOc1cc(NC(=O)NCc2ccc3c(C4CCC(=O)NC4=O)noc3c2)cc(Cl)c1C` (centres unmarked) [WX013], the DC50 [1] is reported as 1.07 nM, the Dmax [1] is reported as 100% and the “Area” value [2, 3] is reported as 40.90 µM·h. The Peak concentration [2, 3] was 3.06 µM, the Time to peak [2, 3] was 2.67 h and the “Area” value ([2]; intravenous injection, 2 mg/kg) was 37.03 µM·h. For the same compound, the bioavailability ([2]; PO 10 mg/kg vs IV 2 mg/kg) was 22.1%, the clearance ([2]; intravenous injection, 2 mg/kg) was 1.84 mL/min/kg and the Vd ([2]; intravenous injection, 2 mg/kg) was 0.44 L/kg. The half-life ([2]; intravenous injection, 2 mg/kg) was 307 min.
